In ChEMBL document CHEMBL3987221, “The Australian National University Dept Of Immunology Pathogen Box Compounds Screened” (2018):
Activity calls are given as the source filed them. The rule behind the calls is not given here.

Experiments:
[1] = target: T1, Ferrochelatase, mitochondrial (Homo sapiens) (UniProt P22830); conditions: at 10 µM
T1 sequence (whole entry): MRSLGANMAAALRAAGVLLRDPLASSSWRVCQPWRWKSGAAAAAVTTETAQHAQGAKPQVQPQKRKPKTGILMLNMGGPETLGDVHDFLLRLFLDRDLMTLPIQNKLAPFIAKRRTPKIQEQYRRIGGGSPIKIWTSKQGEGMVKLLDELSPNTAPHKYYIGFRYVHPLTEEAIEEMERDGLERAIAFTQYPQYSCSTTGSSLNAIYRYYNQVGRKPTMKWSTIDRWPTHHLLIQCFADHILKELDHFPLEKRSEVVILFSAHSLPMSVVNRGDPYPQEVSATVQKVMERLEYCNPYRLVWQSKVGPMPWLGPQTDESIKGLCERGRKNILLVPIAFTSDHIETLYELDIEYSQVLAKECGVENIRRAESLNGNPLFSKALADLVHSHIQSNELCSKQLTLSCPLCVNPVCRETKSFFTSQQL
Description: Compound was evaluated for the inhibition of human FECH at 10uM

[2] = target: T2, Porphobilinogen deaminase (Homo sapiens) (UniProt P08397); conditions: at 100 µM
T2 sequence (whole entry): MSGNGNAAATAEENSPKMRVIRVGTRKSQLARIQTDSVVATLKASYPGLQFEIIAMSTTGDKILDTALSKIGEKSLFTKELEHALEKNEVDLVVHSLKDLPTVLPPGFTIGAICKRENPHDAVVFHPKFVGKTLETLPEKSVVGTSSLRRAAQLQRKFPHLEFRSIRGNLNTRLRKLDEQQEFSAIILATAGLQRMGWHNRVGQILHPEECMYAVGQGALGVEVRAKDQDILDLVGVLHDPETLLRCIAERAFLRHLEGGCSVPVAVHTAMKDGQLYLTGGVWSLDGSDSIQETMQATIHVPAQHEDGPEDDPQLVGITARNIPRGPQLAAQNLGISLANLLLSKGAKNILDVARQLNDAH
Description: Compound was evaluated for the inhibition of human HMBS at 100uM

Nc1ncnc2c1c(Cc1cccc3ccccc13)nn2CC1CCNCC1
inhibition [1]: inactive | inhibition [2]: inactive

N#Cc1ccc(-c2cnc(N)c(-c3ccc(C(N)=O)cc3)n2)cc1
inhibition [1]: inactive | inhibition [2]: inactive

Oc1c(I)cc(I)c2cccnc12
inhibition [1]: inactive | inhibition [2]: inactive

O=C(NC1CC1)c1ccc(N2CCOc3ccc(Cl)cc32)s1
inhibition [1]: inactive | inhibition [2]: inactive

CC1CCCN(C(=O)C(C)Nc2cc(Cl)ccc2N2CCOCC2)C1 (stereo not drawn)
inhibition [1]: inactive | inhibition [2]: inactive

COc1ccc(C2CC(c3cccs3)=NN2C(=O)c2ccco2)cc1OC (stereo not drawn)
inhibition [1]: inactive | inhibition [2]: inactive

CN(C(=O)c1cc2c(-c3cncnc3)cccc2[nH]1)c1ccccc1
inhibition [1]: inactive | inhibition [2]: inactive

CNc1snc(C)c1C(=O)NCCOc1ccc(OC)cc1
inhibition [1]: inactive | inhibition [2]: inactive

O=C(Nc1nc(-c2ccccn2)cs1)c1cncn1-c1ccccc1
inhibition [1]: inactive | inhibition [2]: inactive

NS(=O)(=O)c1cncc(-c2ccc3nccc(-c4cn[nH]c4)c3n2)c1
inhibition [1]: inactive | inhibition [2]: inactive

COc1ccc(C2=NCCN2)cc1-c1cn(-c2cccc(C3=NCCN3)c2)nn1
inhibition [1]: inactive | inhibition [2]: inactive

O=C(Nc1ccc2c(c1)B(O)OC2)c1ccccc1C(F)(F)F
inhibition [1]: inactive | inhibition [2]: inactive

CC(C)(C)C(O)C(Oc1ccc(-c2ccccc2)cc1)n1cncn1 (stereo not drawn)
inhibition [1]: inactive | inhibition [2]: inactive

O=C(COc1cccc(F)c1)Nc1nc(-c2ccccn2)cs1
inhibition [1]: inactive | inhibition [2]: inactive

Cc1nc(-c2ccccn2)nc(N2CCC(Cc3ccccc3)C2)c1Cl (stereo not drawn)
inhibition [1]: inactive | inhibition [2]: inactive

Cc1cc(Nc2ccncc2)n2nc(C)c(-c3ccccc3Cl)c2n1
inhibition [1]: inactive | inhibition [2]: inactive

COc1cc(CN2CCC3(C=Cc4ccccc43)CC2)cc2c1OCO2
inhibition [1]: inactive | inhibition [2]: inactive

O=C(Nc1ccc(N2CCNCC2)nc1)c1oc(-c2ccccc2)nc1C(F)(F)F
inhibition [1]: inactive | inhibition [2]: inactive

COc1ccc(CCN2CCC(NCc3cccc(N(C)C)c3)CC2)cc1
inhibition [1]: inactive | inhibition [2]: inactive

c1ccc(Oc2ccc(-c3cc(N4CCNCC4)[nH]n3)cc2)cc1
inhibition [1]: inactive | inhibition [2]: inactive

O=C1O[C@@H](COc2ccon2)CN1c1cc(F)c(C2=CCN(Cc3ccccc3)CC2)c(F)c1
inhibition [1]: inactive | inhibition [2]: inactive

Nc1nccc2ccc(-c3ccc4nccn4c3)cc12
inhibition [1]: inactive | inhibition [2]: inactive

CC(C)(C(=O)Nc1ccc(F)cc1)n1cc(-c2ccccc2F)cn1
inhibition [1]: inactive | inhibition [2]: inactive

COc1cccc(-n2nnnc2S(=O)(=O)Cc2ccccc2)c1
inhibition [1]: inactive | inhibition [2]: inactive

O=C(Nc1nnc(S)s1)c1cc(Br)ccc1Cl
inhibition [1]: inactive | inhibition [2]: inactive

O=C(NCc1nnc2n1CCCCC2)c1ccc(-c2ccc(F)cc2)o1
inhibition [1]: inactive | inhibition [2]: inactive

Cc1cc(NC(=O)c2ccc(S(=O)(=O)N(Cc3ccccc3)C(C)C)cc2)no1
inhibition [1]: inactive | inhibition [2]: inactive

Cc1nnc(NC(=O)c2cn(-c3ccccc3)nc2-c2ccccc2C)o1
inhibition [1]: inactive | inhibition [2]: inactive

Cc1cc2nc(NC(=O)C(C)(C)C)nc(Cl)c2n1Cc1ccc(Cl)cc1
inhibition [1]: inactive | inhibition [2]: inactive

CCOC(=O)c1noc(N)c1-c1ccccc1
inhibition [1]: inactive | inhibition [2]: inactive

CC(C)(C)c1cc(C(=O)N2CCN(c3nccnc3C#N)CC2)n(Cc2ccccc2)n1
inhibition [1]: inactive | inhibition [2]: inactive

O=C(OCc1ccccc1)N1CCC(c2cc(-c3ccncc3)c(-c3ccc(F)cc3)[nH]2)CC1
inhibition [1]: inactive | inhibition [2]: inactive

NCCN(C(=O)c1ccc(Cl)cc1Cl)c1ccc(OCc2ccc(Cl)cc2)cc1
inhibition [1]: inactive | inhibition [2]: inactive

Cc1cc(C)n(-c2ccc(NC(=O)C3CCN(Cc4cnc(C)s4)CC3)cc2)n1
inhibition [1]: inactive | inhibition [2]: inactive

Cc1nc(-c2ccccn2)nc(N(C)CCc2ccccc2)c1Cl
inhibition [1]: inactive | inhibition [2]: inactive

CC(C)n1ncc2c(C(=O)NCC(c3cccs3)N3CCOCC3)cc(-c3ccccc3)nc21 (stereo not drawn)
inhibition [1]: inactive | inhibition [2]: inactive

Cn1ccnc1CNCCS(=O)(=O)c1cccc(Nc2ccc(-c3cccc(F)c3)cn2)c1
inhibition [1]: inactive | inhibition [2]: inactive

CC(C)(C)OC(=O)N1CCN(c2cc(-c3ccc(Oc4ccccc4)cc3)n[nH]2)CC1
inhibition [1]: inactive | inhibition [2]: inactive

CCC(Sc1nc2ccccc2o1)C(=O)Nc1nccs1 (stereo not drawn)
inhibition [1]: inactive | inhibition [2]: inactive

COc1ccc(-c2onc(C(F)(F)F)c2-c2ccc(Cl)cc2)c(O)c1
inhibition [1]: inactive | inhibition [2]: inactive

Cc1cccc(-c2nc(Nc3ccncn3)c3sccc3n2)n1
inhibition [1]: inactive | inhibition [2]: inactive

CCCn1nnc(NC(=O)COc2ccc(C3CCCCC3)cc2)n1
inhibition [1]: inactive | inhibition [2]: inactive

CC(=O)NCC1CN(c2ccc(-c3ccc(CO)cc3)c(F)c2)C(=O)O1 (stereo not drawn)
inhibition [1]: inactive | inhibition [2]: inactive

Cc1nc2ccccn2c1C(=O)NCc1ccc(Cl)cc1
inhibition [1]: inactive | inhibition [2]: inactive

CN(C)c1cc(NC(=O)Nc2ccccc2)c2ccccc2n1
inhibition [1]: inactive | inhibition [2]: inactive

CC(C)(C)n1nc(Cc2ccc(F)c(Cl)c2)c2c(N)ncnc21
inhibition [1]: inactive | inhibition [2]: inactive

CC1=Nc2ccc(Cl)cc2C(O)(c2ccc(C)cc2)N1CCN1CCCCC1 (stereo not drawn)
inhibition [1]: inactive | inhibition [2]: inactive

CCNC(=O)C(C)Nc1nc(-c2cccnc2)nc2sc(C)c(C)c12 (stereo not drawn)
inhibition [1]: inactive | inhibition [2]: inactive

N#Cc1nc(-c2ccccc2)oc1S(=O)(=O)c1ccc(Cl)cc1
inhibition [1]: inactive | inhibition [2]: inactive

COc1ccc(N(CCc2cccc(C)n2)C(=O)C2CCCCC2)cc1
inhibition [1]: inactive | inhibition [2]: inactive

O=C(C1CCN(c2nnc(-n3cccc3)s2)CC1)N1CCC(Cc2ccccc2)CC1
inhibition [1]: inactive | inhibition [2]: inactive

FC(F)(F)c1cccc(-c2nc3c(NCc4ccncc4)nccc3[nH]2)c1
inhibition [1]: inactive | inhibition [2]: inactive

COc1ccccc1OCCCCn1c(C2CC2)nc2ccccc21
inhibition [1]: inactive | inhibition [2]: inactive

CCCCN(CCCC)c1c(C#N)cc(S(=O)(=O)Nc2ccccc2)cc1C#N
inhibition [1]: inactive | inhibition [2]: inactive

C[C@H]1COc2c(N3CCN(C)CC3)c(F)cc3c(=O)c(C(=O)O)cn1c23
inhibition [1]: inactive | inhibition [2]: inactive

C[C@@H]1[C@H](O)[C@@H](C)/C=C/C=C/C=C/C=C/C=C/C=C/C=C/[C@H](O[C@@H]2O[C@H](C)[C@@H](O)[C@H](N)[C@@H]2O)C[C@@H]2O[C@](O)(C[C@@H](O)C[C@@H](O)[C@H](O)CC[C@@H](O)C[C@@H](O)CC(=O)O[C@H]1C)C[C@H](O)[C@H]2C(=O)O
inhibition [1]: inactive | inhibition [2]: inactive

NCCCC(N)(C(=O)O)C(F)F (stereo not drawn)
inhibition [1]: inactive | inhibition [2]: inactive

O=C(NC1CCCCC1)N1CCN(Cc2ccc3c(c2)OCO3)CC1
inhibition [1]: inactive | inhibition [2]: inactive

O=C(NCc1ccco1)N1CCN(Cc2ccc(Cl)s2)CC1
inhibition [1]: inactive | inhibition [2]: inactive

CC(=O)N(CCN(C(=O)c1ccc(F)cc1)c1ccccc1)c1ccccc1
inhibition [1]: inactive | inhibition [2]: inactive

CC1CC1C(=O)NC1CCN(CC2(c3ccccc3)CCCCC2)CC1 (stereo not drawn)
inhibition [1]: inactive | inhibition [2]: inactive

C[C@H](c1ccc2c(c1)CCCC2)N(C)c1ncc2c(N)nc(N)nc2n1
inhibition [1]: inactive | inhibition [2]: inactive

COc1cc(C2=NCCN2)ccc1-n1cc(-c2cccc(C3=NCCN3)c2)nn1
inhibition [1]: inactive | inhibition [2]: inactive

O=C(NCCN1CCCC1)c1cc(NCCN2CCOCC2)nc2ccc(Cl)cc12
inhibition [1]: inactive | inhibition [2]: inactive

O=C(NCc1ccoc1)N1CCN(Cc2ccc3c(c2)OCO3)CC1
inhibition [1]: inactive | inhibition [2]: inactive

CC(C)C(C(=O)Nc1ccc(S(=O)(=O)N(C)C)cc1)c1ccc(Cl)cc1 (stereo not drawn)
inhibition [1]: inactive | inhibition [2]: inactive

FC(F)(F)c1cc(NCCc2ccccc2)nc(-c2ccccn2)n1
inhibition [2]: inactive
